Source: the NIST ThermoML archive (doi:10.1016/j.tca.2006.11.008)
± gives the expanded uncertainty stated by the source.

Test: molar enthalpy of vaporization or sublimation
Conditions: Crystal, Static calorimetry

`NC(=O)C1CCNCC1` [4-piperidinecarboxamide] showed a molar enthalpy (426.8 K) of 29.5 ± 0.311 kcal/mol.

Work on `NC(=O)N1CCCCC1` [1-piperidinecarboxamide] yielded a molar enthalpy (386 K) of 23.9 ± 0.311 kcal/mol.

Work on `NC(=O)C1CCCNC1` (stereo not drawn) [3-piperidinecarboxamide] yielded a molar enthalpy (386 K) of 26.9 ± 0.311 kcal/mol.
